Where “and” joins values, the source holds several entries; their conditions need not be identical. Equal values may be shown once. Toxic doses and inconclusive results are not listed.
Tested on: L1210 leukemia ip in BDF1 mice, survival T/C
Experiment: NCI In Vivo Anticancer Drug Screen. Data for tumor model L1210 Leukemia (intraperitoneal) in B6D2F1 (BDF1) mice
Conditions: endpoint: mean survival time, higher = longer survival
Outline: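 Tumor was transplanted into mice, which were then dosed with test compound or vehicle alone. Survival was recorded for each group, and the treated figure was expressed relative to the control figure.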

[1] = dose: 100.0 mg/kg/injection, schedule: Q01DX009 (ip), vehicle: saline with Tween-80
[2] = dose: 100.0 mg/kg/injection, schedule: Q04DX003 (ip), vehicle: saline with Tween-80
[3] = dose: 100.0 mg/kg/injection, schedule: Q01DX001 (ip), vehicle: carboxymethylcellulose (CMC)
[4] = dose: 200.0 mg/kg/injection, schedule: Q01DX001 (ip), vehicle: carboxymethylcellulose (CMC)
[5] = dose: 100.0 mg/kg/injection, schedule: Q01DX009 (ip), vehicle: saline

Which results are given for `COc1ccc2c(c1)-c1c(ccc(OC)c1O)CC(c1ccccc1)[N+](C)(C)CC2` (stereo not given)?
T/C (dose: 6.25 mg/kg/injection, schedule: Q01DX001 (ip), vehicle: saline): 96 % of control; T/C (dose: 12.5 mg/kg/injection, schedule: Q01DX001 (ip), vehicle: saline): 96 % of control; T/C (dose: 25.0 mg/kg/injection, schedule: Q01DX001 (ip), vehicle: saline): 107 % of control

What does the source list for `O/N=c1/ccn(O)c2ccccc12`?
T/C (dose: 0.5 mg/kg/injection, schedule: Q03HX008 (ip), vehicle: other): 114 % of control; T/C (dose: 0.51 mg/kg/injection, schedule: Q01DX009 (ip), vehicle: saline): 111 % of control and 119 % of control; T/C (dose: 0.78 mg/kg/injection, schedule: Q01DX009 (ip), vehicle: saline): 116 % of control; T/C (dose: 1.0 mg/kg/injection, schedule: Q01DX009 (sc), vehicle: other): 114 % of control; T/C (dose: 1.17 mg/kg/injection, schedule: Q01DX009 (ip), vehicle: saline): 110 % of control; T/C (dose: 1.7 mg/kg/injection, schedule: Q01DX015 (ip), vehicle: saline): 108 % of control; T/C (dose: 2.0 mg/kg/injection, schedule: Q01DX009 (sc), vehicle: other): 113 % of control; T/C (dose: 2.0 mg/kg/injection, schedule: Q01DX015 (ip), vehicle: saline): 122 % of control; T/C (dose: 2.0 mg/kg/injection, schedule: Q03HX008 (ip), vehicle: other): 151 % of control; T/C (dose: 4.0 mg/kg/injection, schedule: Q01DX001 (sc), vehicle: other): 118 % of control; T/C (dose: 4.0 mg/kg/injection, schedule: Q01DX009 (ip), vehicle: other): 88 % of control; T/C (dose: 4.0 mg/kg/injection, schedule: Q01DX009 (oral), vehicle: other): 98 % of control; T/C (dose: 4.0 mg/kg/injection, schedule: Q01DX009 (sc), vehicle: other): 104 % of control; T/C (dose: 4.0 mg/kg/injection, schedule: Q03HX016 (ip), vehicle: other): 87 % of control; T/C (dose: 4.4 mg/kg/injection, schedule: Q01DX001 (ip), vehicle: other): 113 % of control; T/C (dose: 6.0 mg/kg/injection, schedule: Q01DX015 (ip), vehicle: saline): 123 % of control; T/C (dose: 6.6 mg/kg/injection, schedule: Q01DX001 (ip), vehicle: other): 113 % of control; T/C (dose: 8.0 mg/kg/injection, schedule: Q01DX001 (ip), vehicle: other): 108 % of control; T/C (dose: 8.0 mg/kg/injection, schedule: Q01DX001 (oral), vehicle: other): 102 % of control; T/C (dose: 8.0 mg/kg/injection, schedule: Q01DX001 (sc), vehicle: other): 108 % of control; T/C (dose: 8.0 mg/kg/injection, schedule: Q01DX005 (ip), vehicle: other): 93 % of control; T/C (dose: 8.0 mg/kg/injection, schedule: Q01DX009 (oral), vehicle: other): 108 % of control; T/C (dose: 8.0 mg/kg/injection, schedule: Q01DX009 (sc), vehicle: other): 120 % of control; T/C (dose: 8.0 mg/kg/injection, schedule: Q04DX003 (ip), vehicle: other): 110 % of control; T/C (dose: 8.0 mg/kg/injection, schedule: Q08DX002 (ip), vehicle: other): 114 % of control; T/C (dose: 9.0 mg/kg/injection, schedule: Q01DX015 (ip), vehicle: saline): 87 % of control; T/C (dose: 16.0 mg/kg/injection, schedule: Q01DX001 (oral), vehicle: other): 103 % of control; T/C (dose: 16.0 mg/kg/injection, schedule: Q01DX001 (sc), vehicle: other): 96 % of control; T/C (dose: 16.0 mg/kg/injection, schedule: Q01DX009 (oral), vehicle: other): 103 % of control; T/C (dose: 25.0 mg/kg/injection, schedule: Q04DX003 (ip), vehicle: saline): 88 % of control; T/C (dose: 32.0 mg/kg/injection, schedule: Q01DX001 (oral), vehicle: other): 113 % of control; T/C (dose: 32.0 mg/kg/injection, schedule: Q01DX001 (sc), vehicle: other): 118 % of control; T/C (dose: 32.0 mg/kg/injection, schedule: Q01DX009 (oral), vehicle: other): 103 % of control; T/C (dose: 40.0 mg/kg/injection, schedule: Q01DX001 (ip), vehicle: other): 109 % of control; T/C (dose: 64.0 mg/kg/injection, schedule: Q01DX001 (oral), vehicle: other): 104 % of control; T/C (dose: 80.0 mg/kg/injection, schedule: Q01DX001 (ip), vehicle: other): 89 % of control; T/C (dose: 128.0 mg/kg/injection, schedule: Q01DX001 (oral), vehicle: other): 103 % of control

What does the source list for `NC1CCc2ccccc2C(O)C1c1ccccc1` (stereo not given)?
T/C (dose: 25.0 mg/kg/injection, schedule: Q01DX009 (ip), vehicle: saline with Tween-80): 97 % of control; T/C (dose: 25.0 mg/kg/injection, schedule: Q04DX003 (ip), vehicle: saline with Tween-80): 107 % of control; T/C (dose: 50.0 mg/kg/injection, schedule: Q01DX009 (ip), vehicle: saline with Tween-80): 105 % of control; T/C (dose: 50.0 mg/kg/injection, schedule: Q04DX003 (ip), vehicle: saline with Tween-80): 104 % of control; T/C [1]: 100 % of control; T/C [2]: 102 % of control

How did the T/C [2] turn out when `NC1=NCCCN1` was run?
Its T/C is 101 % of control.

What does the source list for `N=C(c1ccccc1)c1ccccc1S(=O)(=O)Nc1ccccc1`?
T/C [3]: 95 % of control; T/C [4]: 101 % of control; T/C (dose: 400.0 mg/kg/injection, schedule: Q01DX001 (ip), vehicle: carboxymethylcellulose (CMC)): 95 % of control

For `O=C(NS(=O)(=O)c1ccc(Cl)cc1)c1cccc2ccccc12`, which T/C [1] is on record?
The T/C was 91 % of control.

`O=[N+]([O-])c1ccc(NCc2ccccc2O)cc1` was tested. Which T/C (dose: 75.0 mg/kg/injection, schedule: Q04DX003 (ip), vehicle: other) did it give?
The T/C was 110 % of control.

And the T/C (dose: 100.0 mg/kg/injection, schedule: Q01DX001 (ip), vehicle: Klucel (hydroxypropylcellulose) (HPC))?
Its T/C is 101 % of control.

And the T/C (dose: 150.0 mg/kg/injection, schedule: Q04DX003 (ip), vehicle: other)?
Its T/C is 97 % of control.

And the T/C (dose: 200.0 mg/kg/injection, schedule: Q01DX001 (ip), vehicle: Klucel (hydroxypropylcellulose) (HPC))?
The T/C was 106 % of control.

And the T/C (dose: 300.0 mg/kg/injection, schedule: Q04DX003 (ip), vehicle: other)?
Its T/C is 103 % of control.

And the T/C (dose: 400.0 mg/kg/injection, schedule: Q01DX001 (ip), vehicle: Klucel (hydroxypropylcellulose) (HPC))?
Its T/C is 101 % of control.

For `O=S1(=O)C2CCCC1C(Cl)CC2` (stereo not given), which T/C (dose: 15.0 mg/kg/injection, schedule: Q01DX001 (ip), vehicle: carboxymethylcellulose (CMC)) is on record?
The T/C was 100 % of control.

How did the T/C (dose: 100.0 mg/kg/injection, schedule: Q01DX001 (ip), vehicle: saline with Tween-80) turn out when `CC(=O)Nc1ccc(CC(=O)O)cc1` was run?
Its T/C is 96 % of control.

What about the T/C (dose: 200.0 mg/kg/injection, schedule: Q01DX001 (ip), vehicle: saline with Tween-80) of the same compound?
The T/C was 93 % of control.

What about the T/C (dose: 400.0 mg/kg/injection, schedule: Q01DX001 (ip), vehicle: saline with Tween-80) of the same compound?
Its T/C is 100 % of control.

How did the T/C (dose: 50.0 mg/kg/injection, schedule: Q01DX001 (ip), vehicle: carboxymethylcellulose (CMC)) turn out when `CNC(=S)N/N=C/CCC/C=N/NC(=S)NC` was run?
The T/C was 96 % of control.

And the T/C [3]?
The T/C was 100 % of control.

What about the T/C [4] of the same compound?
Its T/C is 98 % of control.

Which T/C (dose: 25.0 mg/kg/injection, schedule: Q01DX009 (ip), vehicle: saline) does the source give for `O=C(O)c1ccc(N/N=C/C(F)(F)F)cc1` here?
Its T/C is 95 % of control and 98 % of control.

And the T/C (dose: 50.0 mg/kg/injection, schedule: Q01DX001 (ip), vehicle: saline)?
Its T/C is 110 % of control.

What about the T/C (dose: 50.0 mg/kg/injection, schedule: Q01DX009 (ip), vehicle: saline) of the same compound?
The T/C was 93 % of control and 106 % of control.

And the T/C (dose: 100.0 mg/kg/injection, schedule: Q01DX001 (ip), vehicle: saline)?
The T/C was 96 % of control.

And the T/C [5]?
The T/C was 95 % of control and 87 % of control.

What about the T/C (dose: 100.0 mg/kg/injection, schedule: Q04DX002 (ip), vehicle: saline) of the same compound?
Its T/C is 106 % of control and 109 % of control.

What about the T/C (dose: 200.0 mg/kg/injection, schedule: Q04DX002 (ip), vehicle: saline) of the same compound?
Its T/C is 96 % of control.

`Cc1ccc(C(=O)C(Br)C(Br)c2ccccc2)cc1` (stereo not given) was tested. Which T/C (dose: 100.0 mg/kg/injection, schedule: Q01DX009 (ip), vehicle: Klucel (hydroxypropylcellulose) (HPC)) did it give?
The T/C was 89 % of control.

And the T/C [1]?
The T/C was 90 % of control.

And the T/C [2]?
Its T/C is 92 % of control.

And the T/C (dose: 200.0 mg/kg/injection, schedule: Q01DX009 (ip), vehicle: Klucel (hydroxypropylcellulose) (HPC))?
The T/C was 89 % of control.

And the T/C (dose: 200.0 mg/kg/injection, schedule: Q01DX009 (ip), vehicle: saline with Tween-80)?
Its T/C is 89 % of control.

What about the T/C (dose: 200.0 mg/kg/injection, schedule: Q04DX003 (ip), vehicle: saline with Tween-80) of the same compound?
Its T/C is 89 % of control.

What about the T/C (dose: 400.0 mg/kg/injection, schedule: Q01DX009 (ip), vehicle: Klucel (hydroxypropylcellulose) (HPC)) of the same compound?
The T/C was 96 % of control.

And the T/C (dose: 400.0 mg/kg/injection, schedule: Q04DX003 (ip), vehicle: saline with Tween-80)?
The T/C was 95 % of control.

How did the T/C [5] turn out when `NC(=O)n1nccc1N` was run?
The T/C was 100 % of control.

What about the T/C (dose: 100.0 mg/kg/injection, schedule: Q04DX003 (ip), vehicle: saline) of the same compound?
Its T/C is 94 % of control.

What about the T/C (dose: 200.0 mg/kg/injection, schedule: Q01DX009 (ip), vehicle: saline) of the same compound?
The T/C was 103 % of control.

What about the T/C (dose: 200.0 mg/kg/injection, schedule: Q04DX003 (ip), vehicle: saline) of the same compound?
The T/C was 104 % of control.

And the T/C (dose: 400.0 mg/kg/injection, schedule: Q01DX009 (ip), vehicle: saline)?
The T/C was 105 % of control.

And the T/C (dose: 400.0 mg/kg/injection, schedule: Q04DX003 (ip), vehicle: saline)?
Its T/C is 91 % of control.
